# Reference: US11065238B2, “Inhibitors of gangliosides metabolism for the treatment of motor neuron diseases” (ICM (INSTITUT DU CERVEAU ET DE LA MOELLE ÉPINIÈRE), priority 2016, dated 2021)
# “Also recorded” adds a separate entry of the source.
# Key:
# [1] = system: GM2 and GM3 gangliosides in primary cultures of cortical neurons; experiment: Fluorescence intensity of GM2 / GM3 immunostaining in primary cultures of cortical neurons; type: cell-based, mouse; settings: for increase in overall GM2 levels: glutamate treatment
# Description: Mouse primary cultures of cortical neurons were treated with Miglustat (Tocris) from the second day in culture. Medium was changed every three days. Immunostaining were performed after six days of culture in vitro, as previously described (Murmu et al., 2011). To downregulate GM3 synthase expression, vectors expressing miRNA were produced using the Block-it kit (Life Technologies). The miRNA sequences were: […] TGTACAT (miRNA GM3S-1) (SEQ ID NO: 3), […] (miRNA GM3S-2) (SEQ ID NO: 4), […] CTGTAGA (miRNA Neu1-1) (SEQ ID NO: 5) and […] ATCGTAG (miRNA Neu1-2) (SEQ ID NO: 6). Neurons were transfected with vectors expressing the miRNA and GFP using the Neon transfection system (Life Technologies). The efficiency of the miRNA sequences was validated by transfecting NIH-3T3 cells and performing quantitative RT-PCR using a LightCycler 480 apparatus (Roche) following the manufacturer's instructions. […] Quantification of gangliosides levels was performed either with an automated ArrayScan XTI apparatus (Thermo-Fisher) using the General Intensity Measurement protocol, or with ImageJ on image acquired on a Nikon Eclipse Ti-U microscope. […] Colocalization of ganglioside staining with lysosomes was quantified using ImageJ. A mask was made from the Lamp1 staining channel and the corresponding ganglioside fluorescence was quantified as the percentage of total ganglioside fluorescence in every cell. […] To quantify neuronal death, 30 hours after glutamate treatment all neurons were labeled with 100 nM Cell tracker Deep Red (Life Technologies) and dead cells were labeled by propidium iodide (5 μM). […] The number of Tuj-1-positive cells per well was quantified with an automated ArrayScan XTI apparatus (Thermo-Fisher) using the compartmental analysis protocol. Neuronal death was quantified by comparing glutamate-treated and non-treated neurons.
# p62 = experiment: Western blot analysis of p62 levels in cortical neurons; type: cell-based, mouse
# cultured neurons = settings: glutamate treatment; cited from earlier work
# [2] = system: primary cultures of Spg11+/+ and Spg11−/− cortical neurons; experiment: Neuronal death triggered by glutamate in primary cultures of cortical neurons; type: cell-based, mouse; settings: glutamate 200 μM, 30 hours
# Description: (§1) Mouse primary cultures of cortical neurons were treated with Miglustat (Tocris) from the second day in culture. Medium was changed every three days. Immunostaining were performed after six days of culture in vitro, as previously described (Murmu et al., 2011). To downregulate GM3 synthase expression, vectors expressing miRNA were produced using the Block-it kit (Life Technologies). The miRNA sequences were: […] TGTACAT (miRNA GM3S-1) (SEQ ID NO: 3), […] (miRNA GM3S-2) (SEQ ID NO: 4), […] CTGTAGA (miRNA Neu1-1) (SEQ ID NO: 5) and […] ATCGTAG (miRNA Neu1-2) (SEQ ID NO: 6). Neurons were transfected with vectors expressing the miRNA and GFP using the Neon transfection system (Life Technologies). The efficiency of the miRNA sequences was validated by transfecting NIH-3T3 cells and performing quantitative RT-PCR using a LightCycler 480 apparatus (Roche) following the manufacturer's instructions. […] Quantification of gangliosides levels was performed either with an automated ArrayScan XTI apparatus (Thermo-Fisher) using the General Intensity Measurement protocol, or with ImageJ on image acquired on a Nikon Eclipse Ti-U microscope. […] Colocalization of ganglioside staining with lysosomes was quantified using ImageJ. A mask was made from the Lamp1 staining channel and the corresponding ganglioside fluorescence was quantified as the percentage of total ganglioside fluorescence in every cell. […]
# [3] = system: autolysosomes in Spg11+/+ and Spg11−/− neurons; experiment: Proportion of Lamp1-stained lysosomes also positive for p62 (autolysosomes) in cultured cortical neurons; type: cell-based, mouse; settings: miglustat 100 μM, six days in vitro
# Description: as §1
# [4] = system: zebrafish zspg11 morphants; experiment: Zebrafish zspg11 model: phenotype of morphants 48 hours post fertilization; type: in vivo; settings: 48 hpf; for motor phenotype of morphants: injection of 1.2 pmol morpholino vs mismatch or non-injected
# Description: (§2) Modeling of Spg11 pathology in zebrafish was performed as described previously (Martin, 2012). The knock-down of zspg11 was performed using a morpholino targeting a splice donor site, zspg11spl (5′-[…]-3′—SEQ ID NO: 88). The control morpholino mmzspg11spl (5′-ACgAATgATAGCcTCTCGTAgCgTC-3′—SEQ ID NO: 89) containing five mismatch nucleotides was used to distinguish specific phenotypic effects resulting from the knock-down of zspg11 from non-specific effects due to injection or morpholino toxicity. One nl of 1.2 mM solution of zspg11spl or mmzspg11spl were injected into the yolk of one- to two-cell stage embryos. After injection, embryos were maintained at 28° C. in E3 medium, containing miglustat (Tocris Bioscience) at 100 or 300 uM or DMSO for control groups. At 24 hpf they were manually dechorionated using fine forceps. […] To quantify motor activity, we monitored the touch-evoked escape response at 48 hours post-fertilization in fishes with no obvious developmental abnormalities as previously described (Martin, 2012). Images were acquired at 500 images per sec. Tracking of the touch evoked escape response was performed using the Image J manual tracking plugin. Assessment of GM2 ganglioside levels was performed by whole-mount in vivo immunohistochemistry using 48 hpf embryos fixed in 4% paraformaldehyde in PBS for 2 h at room temperature. Embryos were washed 3 times (5 min each) in PBS-0.1% Triton X-100 (PBST). Embryos were blocked for 1 h in 5% normal goat serum in PBS containing 1% DMSO and 1% Triton X-100 (PBDT), then incubated overnight at 4° C. in blocking solution containing the GM2 primary antibody. […] Larvae were oriented in the same position for image capture to minimize potential biases in quantification. […] Using ImageJ software, the maximum intensity projections of z-stacks were used for quantification of fluorescence in the telencephalon. Mean and variance of the fluorescence intensity were quantified for each morphant in a square of 100 pixels per 100 pixels.
# [5] = system: zebrafish zspg11 morphants; experiment: Zebrafish zspg11 model: touch-evoked escape response; type: in vivo; settings: for distance travelled following a touch-evoked escape response: treated with miglustat; for swimming / touch-induced escape: injection of 1.2 pmol morpholino vs mismatch morpholino
# Description: Modeling of Spg11 pathology in zebrafish was performed as described previously (Martin, 2012). The knock-down of zspg11 was performed using a morpholino targeting a splice donor site, zspg11spl (5′-[…]-3′—SEQ ID NO: 88). The control morpholino mmzspg11spl (5′-ACgAATgATAGCcTCTCGTAgCgTC-3′—SEQ ID NO: 89) containing five mismatch nucleotides was used to distinguish specific phenotypic effects resulting from the knock-down of zspg11 from non-specific effects due to injection or morpholino toxicity. One nl of 1.2 mM solution of zspg11spl or mmzspg11spl were injected into the yolk of one- to two-cell stage embryos. After injection, embryos were maintained at 28° C. in E3 medium, containing miglustat (Tocris Bioscience) at 100 or 300 uM or DMSO for control groups. At 24 hpf they were manually dechorionated using fine forceps. […] To quantify motor activity, we monitored the touch-evoked escape response at 48 hours post-fertilization in fishes with no obvious developmental abnormalities as previously described (Martin, 2012). Images were acquired at 500 images per sec. Tracking of the touch evoked escape response was performed using the Image J manual tracking plugin. Assessment of GM2 ganglioside levels was performed by whole-mount in vivo immunohistochemistry using 48 hpf embryos fixed in 4% paraformaldehyde in PBS for 2 h at room temperature. Embryos were washed 3 times (5 min each) in PBS-0.1% Triton X-100 (PBST). Embryos were blocked for 1 h in 5% normal goat serum in PBS containing 1% DMSO and 1% Triton X-100 (PBDT), then incubated overnight at 4° C. in blocking solution containing the GM2 primary antibody. After 4 washes in PBST at room temperature, embryos were incubated with an anti IgM antibody coupled to Alexa-488 (Thermo Fishser), overnight at room temperature in PBDT. Before observation, embryos were washed 3 times in PSBT and mounted in a drop of Fluoromount™ Aqueous Mounting Medium (Sigma Aldrich). Whole-mount embryos were imaged on a confocal microscope (Leica SP8, 40X, NA 0.8). Larvae were oriented in the same position for image capture to minimize potential biases in quantification. Image stacks were collected with a step-size of 0.35 μm. Using ImageJ software, the maximum intensity projections of z-stacks were used for quantification of fluorescence in the telencephalon. Mean and variance of the fluorescence intensity were quantified for each morphant in a square of 100 pixels per 100 pixels.
# [6] = system: GM2 in the telencephalon of zebrafish morphants; experiment: Zebrafish zspg11 model: GM2 immunostaining in the telencephalon; type: in vivo; settings: for GM2 immunostaining in the telencephalon: injection of 1.2 pmol morpholino vs mismatch morpholino
# Description: as §2
# [7] = system: mouse model of Tay Sachs disease; settings: cited from earlier work
compound,measurement,setting,value
"N[C@@H](CCC(=O)O)C(=O)O [Glutamate, glutamate]",increase in overall GM2 levels,"[1]; Spg11−/− neurons, p=0.007, n>10",15.7±3.9%
same,increase in overall GM2 levels,"[1]; control neurons, p=0.02, n>9",20.0±4.6%
same,p62 levels,p62; Spg11−/− neurons treated with glutamate (200 μM) for 24 hours,significantly increased
same,p62 levels,p62; control neurons treated with glutamate (200 μM) for 24 hours,no difference
same,ganglioside levels,cultured neurons,increase ganglioside levels
"CCCCN1C[C@H](O)[C@@H](O)[C@H](O)[C@H]1CO [Miglustat, N-butyldeoxynojirimycin]",neuronal death induced by glutamate,[2],prevented neuronal death induced by glutamate; also recorded: decreased the neuronal death induced by glutamate in a dose-dependent manner
same,levels of GM2 (fluorescence intensity of GM2 immunostaining),"[1]; control and Spg11−/− cortical neurons, six days in vitro",significantly decreased the levels of GM2 in a dose-dependent manner
same,proportion of lysosomes positive for the p62 marker,[3],strongly decreased
same,glutamate-induced increase of p62 levels,"p62; Spg11−/− neurons, miglustat 100 μM, glutamate 200 μM for 24 hours, p62 normalized to tubulin",inhibited
same,proportion of paralyzed larvae,"[4]; larvae injected with zspg11spl morpholino, miglustat 100 or 300 uM in medium",decreased the proportion of paralyzed morphants; also recorded: significantly reduced in a dose-dependent manner
same,distance travelled following a touch-evoked escape response,[5]; morphants injected with mismatch morpholino,no effect
same,distance travelled following a touch-evoked escape response,"[5]; morphants injected with zspg11spl morpholino, 48 hpf",corrected when treated by miglustat; also recorded: significantly corrected
same,GM2 immunostaining intensity (mean and variance) in the telencephalon,"[6]; morphants injected with zspg11spl morpholino, treated with miglustat, 48 hpf",corrected when morphants were treated with miglustat; also recorded: corrected in larvae treated by miglustat
same,brain levels of GM2,[7],decrease brain levels of GM2
"zspg11spl: morpholino targeting a splice donor site for knock-down of zspg11, 5′-ACCAATCATAGCGTCTCGTACCCTC-3′ (all phosphorodiamidate morpholino (PMO))",motor phenotype of morphants,[4],large proportion of paralyzed or slowly swimming phenotypes
same,motor phenotype of morphants,[4]; listed as zspg11 morpholinos,either a loss of motility or a paralysis
same,swimming / touch-induced escape,[5],impaired the swimming
same,swimming / touch-induced escape,[5]; listed as zspg11 morpholinos,significantly shorter touch-induced escapes
same,GM2 immunostaining in the telencephalon,[6],increased the mean and variance of GM2 immunostaining intensity
same,GM2 immunostaining in the telencephalon,[6]; listed as zspg11 morpholinos,stronger GM2 staining
